Usually IC50 stands for the concentration needed to halve the response being measured.

Holding throughout (assay type): biochemical
In assay [1] the target is T1, Yeast Prion Protein Sup35p (Sup35p7–13) (Saccharomyces cerevisiae, UniProt P05453).
T1 construct: gene SUP35

Assay [2] addresses T2, Aβ21–40 (Homo sapiens, UniProt P05067).
T2 construct: gene APP
Put plainly: ESI-MS adducts ([…] and […]); IC50 from ThT aggregation assay.

Assay [3] deals with T3, nucleophosmin 1 (NPM1_264–277) (Homo sapiens, UniProt P06748).
T3 construct: gene NPM1; helix H2 of C-terminal domain, residues 264–277 ([…])
Put plainly: ESI-MS adducts; IC50 from ThT aggregation assay; CD.

T2 sequence (P05067 692-711): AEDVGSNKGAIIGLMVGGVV

As to `CSC1=[S+][Pt-2]([Cl])([S+](C)(C)=O)[O]C(c2cccc(O)c2)=C1` (stereo not drawn) [compound 1, 1], the IC50 came out at 55 ± 1.12 µM in assay [1], 19.9 ± 1.6 µM in assay [2] and 62.3 ± 1.3 µM in assay [3].
